The nature of series [1]: Oxygen Radical Absorbance Capacity (ORAC) antioxidant potential. Set-up: unit not given here. The note with it: calculated from ORAC values (AUC minus blank); Trolox as internal control. As for the experimental part:
Antioxidant potential is evaluated using the Oxygen Radical Absorbance Capacity (ORAC) protocol. ORAC is a chemical in-vitro method based on the hydrogen atom transfer (HAT) mechanism. ORAC measures antioxidant inhibition of peroxyl radical induced oxidations and thus reflects classical radical chain breaking antioxidant activity by H atom transfer. In this assay, the peroxyl radical reacts with a fluorescent probe to form a non-fluorescent product. This is quantitated using a fluorescence measurement. Antioxidant capacity is determined by decreased rate and amount of product formed over time. This assay depends upon the free radical damage to the fluorescent probe resulting in the change in its fluorescence intensity. The change of fluorescence intensity is an indicator of the degree of free radical damage. In the presence of an antioxidant, the inhibition of free radical damage is reflected in higher fluorescence intensity and can be measured as antioxidant capacity against the free radicals. The uniqueness of ORAC assay is that the reaction is driven to completion. This allows calculation of the area under the curve (AUC) and gives an absolute quantitation of antioxidancy as opposed to relative measurements in many other assays.
As noted, the longer it takes to observe a decrease in fluorescence, the higher the antioxidant (AO) potential. From the AUC for a given antioxidant, the AUC for blank is subtracted to give its ORAC value. The concentration of AO needed to give the same AUC values as Trolox is calculated and used to represent the Trolox equivalent AO Capacity (TEAC). Trolox is ((±)-6-Hydroxy-2,5,7,8-tetramethylchromane-2-carboxylic acid, CAS #53188-07-1), and is used as an internal control.
The ORAC test is conducted in the compounds of Examples 1-5 (inventive compounds) as well as to Vitamin C, Vitamin E, and the following comparative compounds:
The TEAC values calculated from the ORAC values are listed the Table 2.

The test system of another series is collagen. Put plainly: UVA-induced collagen degradation, SDS-PAGE / densitometry of collagen γ-bands. The series is classed as biochemical. The note with it: antioxidant at 238 μM, UVA irradiation, FIG. 3. As for the experimental part:
FIG. 3 is a densitometry plot of collagen γ-bands on SDS-PAGE of samples containing antioxidant at concentration of 238 μM.
In addition to the oxidative stress due to radical and ROS generation, oxidative damage to collagen can also be induced by UVA irradiation. Similar to the radical-induced collagen degradation, the effect of UVA in collagen degradation is mitigated by the presence of nitrones.
Similar to the prevention of radical-induced degradation, better efficacy in the inhibitory effect of preventing UVA-induced degradation is also observed for VAN-IPHA (FIG. 3). In this analysis, the effects of VAN-IPHA and pHBz-IPHA are compared to a highly efficacious antioxidant, Resveratrol. […] The stability of nitrones of the invention provide an advantageous alternative solution for antioxidant needs in cosmetic applications, such as anti-aging.

Another series has as its system Type I collagen. As to the kind of experiment: AAPH radical induced collagen degradation, SDS-PAGE of remaining γ-chain. The series is classed as biochemical. Particulars: incubated with AAPH at 50° C. for 90 mins; antioxidants at same concentration; FIG. 1. As for the experimental part: Type I collagen, typically found in abundance in skin, is dissolved in 0.04 M acetic acid, pH 4.3, prior to different treatments. For radical induced collagen degradation, aqueous radical initiator 2,2′-azobis-2-methyl-propanimidamide dihydrochloride (AAPH) is used. The collagen samples are incubated with AAPH in the presence of VAN-IPHA (Example 3), pHBz-IPHA (Example 6), and vitamin E (comparative) of the same concentration to determine the efficacy of these antioxidants in preventing collagen degradation. After incubation at 50° C. for 90 mins, the collagen samples are analyzed by SDS-PAGE to determine the degree of degradation by the remaining amount of γ-chain, which is a covalently cross-linked trimer for collagen.

As to `CCCC/C=[N+](\[O-])C(C)C` [VAL-IPHA, reference compound], in series [1], the “TEAC (Trolox equivalent AO Capacity)” value is recorded as 0.18.

In general, melting point refers to the temperature of the solid-liquid transition. In turn, `CC(C)/[N+]([O-])=C/c1ccc(O)cc1` [pHBz-IPHA, (Z)-N-(4-hydroxybenzylidene)propan-2-amine oxide] came in with a melting point of 217 to 218 °C. In series [1], the “TEAC (Trolox equivalent AO Capacity)” value was 8.67.

Regarding `Cc1cc(/C=[N+](\[O-])C(C)C)cc(C)c1O` [DMHBz-IPHA, (Z)-N-(4-hydroxy-3,5-dimethylbenzylidene)propan-2-amine oxide], the “TEAC (Trolox equivalent AO Capacity)” value in series [1] is 1.56.

For `CC(C)(C)/[N+]([O-])=C/c1ccccc1` [PBN, reference compound], the “TEAC (Trolox equivalent AO Capacity)” value in series [1] is 0.04.

For Vitamin E [reference compound], in series [1], the “TEAC (Trolox equivalent AO Capacity)” value is 0.13.

As for `O=C1O[C@H]([C@@H](O)CO)C(O)=C1O` [Vitamin C, reference compound], the “TEAC (Trolox equivalent AO Capacity)” value in series [1] is 0.76.

For `Cc1cc(C(C)(C)C)c(O)c(C(C)(C)C)c1` [BHT, reference compound], the “TEAC (Trolox equivalent AO Capacity)” value in series [1] was 0.11-0.21.

Compound `COc1cc(/C=[N+](\[O-])C(C)C)ccc1O` [VAN-IPHA, (Z)-N-(4-hydroxy-3-methoxybenzylidene)propan-2-amine oxide] came in with a melting point of 178 to 180 °C. For the same compound, the “inhibitory effect of preventing UVA-induced collagen degradation” value in the series on collagen is “better efficacy than Resveratrol”. For the same compound, the “extent of collagen degradation (remaining γ-chain)” value in the series with Type I collagen is “significantly less”. The “TEAC (Trolox equivalent AO Capacity)” value in series [1] is 5.41.

Turning to `COc1cc(/C=[N+](\[O-])C(C)(C)C)ccc1O` [VAN-tBHA, (Z)-N-(4-hydroxy-3-methoxybenzylidene)-2-methylpropan-2-amine oxide], the “TEAC (Trolox equivalent AO Capacity)” value in series [1] is given as 4.42.

For `CC(C)/[N+]([O-])=C/c1ccccc1O` [SAL-IPHA, (Z)-N-(2-hydroxybenzylidene)propan-2-amine oxide], in series [1], the “TEAC (Trolox equivalent AO Capacity)” value was 3.02.

Source of the values: US9452119B2, “Nitrone compounds and their use in personal care” (Dow Global Technologies LLC, priority 2011, dated 2016).
